Consider 18 compounds from patent US8957078B2, “Compounds useful as inhibitors of ATR kinase” (Vertex Pharmaceuticals Incorporated, priority 2013, dated 2015).

Assay [1] concerns the target T1, ATR kinase, in the presence of partner proteins ATRIP, CLK2 and TopBP1 (Homo sapiens, UniProt Q13535).
T1 construct: in the presence of 4 nM full-length ATR, 40 nM full-length ATRIP
In words: ATR-Complex Inhibition Assay (radioactive-phosphate incorporation). Type of assay: biochemical. To be noted: Ki(app); 4 nM full-length ATR, 40 nM ATRIP, 40 nM CLK2, 600 nM TopBP1(A891-S1105), 10 μM ATP, 25° C. As for the experimental part: Compounds were screened for their ability to inhibit ATR kinase, in the presence of partner proteins ATRIP, CLK2 and TopBP1, using a radioactive-phosphate incorporation assay. Assays were carried out in a mixture of 50 mM Tris/HCl (pH 7.5), 10 mM MgCl2 and 1 mM DTT. Final substrate concentrations were 10 μM [g-33P]ATP (3.5 μCi 33P ATP/nmol ATP, Perkin Elmer, Massachusetts, USA) and 800 μM target peptide (ASELPASQPQPFSAKKK (SEQ. ID NO: 1)), Isca Biochemicals, Cambridgeshire, UK).
Assays were carried out at 25° C. in the presence of 4 nM full-length ATR, 40 nM full-length ATRIP, 40 nM full-length CLK2 and 600 nM TopBP1(A891-S1105). An enzyme stock buffer solution was prepared containing all of the reagents listed above, with the exception of target peptide, ATP and the test compound of interest. This enzyme stock was pre-incubated for 30 minutes at 25° C. […]
After removing mean background values for all of the data points, Ki(app) data were calculated from non-linear regression analysis of the initial rate data using the Prism software package (GraphPad Prism version 6.0c for Macintosh, GraphPad Software Inc., San Diego, USA).

In assay [2] the target is T2, ATR kinase (full-length ATR) (Homo sapiens, UniProt Q13535).
T2 construct: in the presence of 5 nM full-length ATR
In words: ATR Inhibition Assay (radioactive-phosphate incorporation). Type of assay: biochemical. To be noted: Ki(app); 5 nM full-length ATR, 10 μM ATP, 800 μM target peptide, 25° C.

Assay [3] concerns HCT116 colorectal cancer cells. In words: Cisplatin Sensitization Assay (96 h cell viability MTS). Type of assay: cell-based. The note with it: concentration of compound required to reduce the IC50 of Cisplatin alone by at least 3-fold; HCT116, 96 h MTS. The gist of the method:
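HCT116 cells treated 96 h at 37 °C with compound and cisplatin together as a full matrix of 2-fold dilutions, each from 10 μM final top concentration. Viability by MTS, absorbance 490 nm. Value reported: compound concentration lowering cisplatin IC50 at least 3-fold.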

SMILES strings stand for the structures.

T2 sequence (Q13535 whole entry): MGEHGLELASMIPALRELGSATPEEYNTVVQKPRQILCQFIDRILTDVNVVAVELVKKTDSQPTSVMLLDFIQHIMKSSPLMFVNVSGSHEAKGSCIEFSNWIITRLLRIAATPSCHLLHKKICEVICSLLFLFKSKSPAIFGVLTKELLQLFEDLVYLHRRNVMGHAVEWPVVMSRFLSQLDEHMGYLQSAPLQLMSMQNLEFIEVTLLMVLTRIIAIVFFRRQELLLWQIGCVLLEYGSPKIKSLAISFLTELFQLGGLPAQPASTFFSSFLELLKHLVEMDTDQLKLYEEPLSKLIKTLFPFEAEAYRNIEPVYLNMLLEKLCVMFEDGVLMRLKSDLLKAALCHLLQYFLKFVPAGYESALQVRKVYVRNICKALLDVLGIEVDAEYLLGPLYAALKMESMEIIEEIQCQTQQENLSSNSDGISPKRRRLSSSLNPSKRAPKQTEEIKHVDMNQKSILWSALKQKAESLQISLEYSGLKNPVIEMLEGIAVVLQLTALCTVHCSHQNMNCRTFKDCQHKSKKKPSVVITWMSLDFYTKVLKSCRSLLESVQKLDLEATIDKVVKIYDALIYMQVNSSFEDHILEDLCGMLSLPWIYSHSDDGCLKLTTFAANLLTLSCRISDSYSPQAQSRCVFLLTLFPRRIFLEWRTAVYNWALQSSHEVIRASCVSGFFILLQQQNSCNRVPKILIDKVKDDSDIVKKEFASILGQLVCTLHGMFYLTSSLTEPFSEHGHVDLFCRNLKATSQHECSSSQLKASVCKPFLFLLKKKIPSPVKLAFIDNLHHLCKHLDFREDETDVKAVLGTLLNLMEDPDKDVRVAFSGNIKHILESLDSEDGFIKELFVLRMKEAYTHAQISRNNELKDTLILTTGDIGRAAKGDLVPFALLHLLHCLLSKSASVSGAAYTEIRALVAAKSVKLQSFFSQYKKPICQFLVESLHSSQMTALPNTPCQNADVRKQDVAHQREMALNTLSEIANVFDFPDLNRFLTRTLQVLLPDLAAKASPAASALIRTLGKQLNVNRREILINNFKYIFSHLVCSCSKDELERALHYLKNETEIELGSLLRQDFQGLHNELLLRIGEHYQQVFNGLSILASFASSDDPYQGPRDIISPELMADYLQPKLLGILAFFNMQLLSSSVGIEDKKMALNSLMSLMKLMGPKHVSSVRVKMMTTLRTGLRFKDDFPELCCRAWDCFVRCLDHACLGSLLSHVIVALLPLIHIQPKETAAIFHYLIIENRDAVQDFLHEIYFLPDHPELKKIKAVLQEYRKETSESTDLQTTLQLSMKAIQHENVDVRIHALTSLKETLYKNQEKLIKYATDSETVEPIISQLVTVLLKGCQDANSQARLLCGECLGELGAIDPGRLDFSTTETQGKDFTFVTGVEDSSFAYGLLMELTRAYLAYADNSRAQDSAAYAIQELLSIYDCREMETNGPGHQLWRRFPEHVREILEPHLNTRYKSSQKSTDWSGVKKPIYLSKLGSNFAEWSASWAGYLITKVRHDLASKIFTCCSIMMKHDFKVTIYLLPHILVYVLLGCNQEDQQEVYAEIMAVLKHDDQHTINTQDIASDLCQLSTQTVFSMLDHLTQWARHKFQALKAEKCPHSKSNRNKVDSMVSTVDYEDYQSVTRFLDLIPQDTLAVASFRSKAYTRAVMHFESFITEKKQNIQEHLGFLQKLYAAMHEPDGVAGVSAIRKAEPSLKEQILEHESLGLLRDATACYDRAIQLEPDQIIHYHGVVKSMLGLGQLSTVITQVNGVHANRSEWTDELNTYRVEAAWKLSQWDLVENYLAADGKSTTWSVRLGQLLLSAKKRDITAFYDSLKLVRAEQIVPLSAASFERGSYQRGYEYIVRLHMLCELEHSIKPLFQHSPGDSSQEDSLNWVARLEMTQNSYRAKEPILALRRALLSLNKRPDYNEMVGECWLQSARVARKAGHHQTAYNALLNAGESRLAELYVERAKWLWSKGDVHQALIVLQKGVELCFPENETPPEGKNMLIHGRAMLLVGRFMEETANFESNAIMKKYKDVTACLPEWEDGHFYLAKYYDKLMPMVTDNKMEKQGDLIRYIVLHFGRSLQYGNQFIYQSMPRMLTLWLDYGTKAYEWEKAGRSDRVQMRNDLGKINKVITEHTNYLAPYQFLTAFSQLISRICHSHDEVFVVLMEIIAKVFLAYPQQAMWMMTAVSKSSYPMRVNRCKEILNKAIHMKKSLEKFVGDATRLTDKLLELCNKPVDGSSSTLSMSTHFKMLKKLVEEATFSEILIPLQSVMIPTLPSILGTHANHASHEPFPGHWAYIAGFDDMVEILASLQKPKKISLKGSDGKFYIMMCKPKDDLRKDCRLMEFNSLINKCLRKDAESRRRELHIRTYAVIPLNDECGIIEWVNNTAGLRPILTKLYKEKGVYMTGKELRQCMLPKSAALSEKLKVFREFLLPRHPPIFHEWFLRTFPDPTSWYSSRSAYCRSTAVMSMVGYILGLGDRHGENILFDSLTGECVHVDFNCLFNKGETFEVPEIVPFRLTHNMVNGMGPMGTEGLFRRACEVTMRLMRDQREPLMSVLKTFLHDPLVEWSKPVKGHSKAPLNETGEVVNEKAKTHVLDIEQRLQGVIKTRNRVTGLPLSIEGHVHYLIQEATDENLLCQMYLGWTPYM
T1 sequence (Q13535 whole entry): as above
T1 sequence (Q8WXE1 whole entry partner): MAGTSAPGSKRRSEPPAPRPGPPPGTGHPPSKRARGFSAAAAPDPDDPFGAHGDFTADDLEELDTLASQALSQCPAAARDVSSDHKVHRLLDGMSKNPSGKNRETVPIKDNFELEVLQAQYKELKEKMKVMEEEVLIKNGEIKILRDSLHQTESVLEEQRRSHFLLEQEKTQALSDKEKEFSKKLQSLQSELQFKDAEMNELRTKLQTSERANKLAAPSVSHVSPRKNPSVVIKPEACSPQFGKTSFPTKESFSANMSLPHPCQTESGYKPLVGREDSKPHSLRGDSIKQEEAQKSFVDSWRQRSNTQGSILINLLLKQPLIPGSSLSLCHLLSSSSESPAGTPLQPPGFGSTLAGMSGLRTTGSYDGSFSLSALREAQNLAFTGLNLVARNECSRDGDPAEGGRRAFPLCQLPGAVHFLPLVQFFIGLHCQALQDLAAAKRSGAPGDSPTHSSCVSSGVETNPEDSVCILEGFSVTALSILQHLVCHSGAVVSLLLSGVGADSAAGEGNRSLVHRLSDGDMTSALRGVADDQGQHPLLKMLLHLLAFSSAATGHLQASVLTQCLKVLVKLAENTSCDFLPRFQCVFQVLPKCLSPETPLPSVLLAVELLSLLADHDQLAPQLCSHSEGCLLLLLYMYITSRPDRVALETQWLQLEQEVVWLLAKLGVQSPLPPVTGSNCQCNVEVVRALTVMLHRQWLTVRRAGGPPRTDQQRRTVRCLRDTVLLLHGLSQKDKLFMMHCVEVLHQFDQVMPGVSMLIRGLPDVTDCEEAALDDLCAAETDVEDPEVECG

As for `CN1CCN(C(=O)c2ccc(-c3cnncc3NC(=O)c3c(N)nn4cc(F)cnc34)cc2)CC1` [I-B-13, 2-amino-6-fluoro-N-(5-(4-(4-methylpiperazine-1-carbonyl)phenyl)pyridazin-4-yl)pyrazolo[1,5-a]pyrimidine-3-carboxamide], the Ki in assay [1] was less than 10 nM; in assay [2], 10 to 1000 nM. Moreover, the “Cisplatin Sensitization Assay” value in assay [3] is given as “++ (Compounds with a Cisplatin sensitization value >0.02 μM but <0.2 μM are marked with “++.”)”.
Taken in the same sequence, the figures for `Nc1nn2cc(F)cnc2c1C(=O)Nc1ccncc1N1CCN(C2COC2)CC1` [I-C-1, 2-amino-6-fluoro-N-(3-(4-(oxetan-3-yl)piperazin-1-yl)pyridin-4-yl)pyrazolo[1,5-a]pyrimidine-3-carboxamide] were less than 10 nM, 10 to 1000 nM and “++ (Compounds with a Cisplatin sensitization value >0.02 μM but <0.2 μM are marked with “++.”)”.
`Cc1nsc(NC(=O)c2c(N)nn3cc(F)cnc23)c1-c1cncn1C` [I-E-6, 2-amino-6-fluoro-N-(3-methyl-4-(1-methyl-1H-imidazol-5-yl)isothiazol-5-yl)pyrazolo[1,5-a]pyrimidine-3-carboxamide]: in assay [2], the Ki is 10 to 1000 nM. Besides, the “Cisplatin Sensitization Assay” value in assay [3] is given as “+++ (Compounds with a Cisplatin sensitization value of <0.02 μM are marked with “+++.”)”.
`Cc1nsc(NC(=O)c2c(N)nn3cc(F)cnc23)c1-c1ccccc1` [I-E-7, 2-amino-6-fluoro-N-(3-methyl-4-phenylisothiazol-5-yl)pyrazolo[1,5-a]pyrimidine-3-carboxamide]: the Ki in assay [2] is less than 10 nM. Also, the “Cisplatin Sensitization Assay” value in assay [3] is listed as “+++ (Compounds with a Cisplatin sensitization value of <0.02 μM are marked with “+++.”)”.
As for `Cc1nsc(NC(=O)c2c(N)nn3cc(F)cnc23)c1-c1ccnn1C` [I-E-8], the Ki in assay [2] fell in the range of 10 to 1000 nM. In assay [3], the “Cisplatin Sensitization Assay” value is given as “+++ (Compounds with a Cisplatin sensitization value of <0.02 μM are marked with “+++.”)”.
In the case of `CC(=O)N1CC=C(c2c(C)nsc2NC(=O)c2c(N)nn3cc(F)cnc23)CC1` [I-E-9, N-(4-(1-acetyl-1,2,3,6-tetrahydropyridin-4-yl)-3-methylisothiazol-5-yl)-2-amino-6-fluoropyrazolo[1,5-a]pyrimidine-3-carboxamide], the Ki in assay [2] fell in the range of 10 to 1000 nM. Further, the “Cisplatin Sensitization Assay” value in assay [3] is listed as “+++ (Compounds with a Cisplatin sensitization value of <0.02 μM are marked with “+++.”)”.
`Cc1nsc(NC(=O)c2c(N)nn3cc(F)cnc23)c1-n1cccn1` [I-E-10, 2-amino-6-fluoro-N-(3-methyl-4-(1H-pyrazol-1-yl)isothiazol-5-yl)pyrazolo[1,5-a]pyrimidine-3-carboxamide]: in assay [2], the Ki is less than 10 nM. Besides, the “Cisplatin Sensitization Assay” value in assay [3] is given as “+++ (Compounds with a Cisplatin sensitization value of <0.02 μM are marked with “+++.”)”.
In the case of `Cc1nsc(NC(=O)c2c(N)nn3cc(F)cnc23)c1-c1cncnc1` [I-E-11, 2-amino-6-fluoro-N-(3-methyl-4-(pyrimidin-5-yl)isothiazol-5-yl)pyrazolo[1,5-a]pyrimidine-3-carboxamide], the Ki in assay [2] is 10 to 1000 nM. The “Cisplatin Sensitization Assay” value in assay [3] is “++ (Compounds with a Cisplatin sensitization value >0.02 μM but <0.2 μM are marked with “++.”)”.
The matching figures for `Cc1nsc(NC(=O)c2c(N)nn3cc(F)cnc23)c1-c1cnn(C)c1` [I-E-12, 2-amino-6-fluoro-N-(3-methyl-4-(1-methyl-1H-pyrazol-4-yl)isothiazol-5-yl)pyrazolo[1,5-a]pyrimidine-3-carboxamide]: 10 to 1000 nM and “++ (Compounds with a Cisplatin sensitization value >0.02 μM but <0.2 μM are marked with “++.”)”.
On to `Cc1cc(-c2c(C)nsc2NC(=O)c2c(N)nn3cc(F)cnc23)ccn1` [I-E-13, 2-amino-6-fluoro-N-(3-methyl-4-(2-methylpyridin-4-yl)isothiazol-5-yl)pyrazolo[1,5-a]pyrimidine-3-carboxamide], for which, in assay [2], the Ki was in the range of 10 to 1000 nM. The “Cisplatin Sensitization Assay” value in assay [3] is “+++ (Compounds with a Cisplatin sensitization value of <0.02 μM are marked with “+++.”)”.
The matching figures for `Cc1nsc(NC(=O)c2c(N)nn3cc(F)cnc23)c1-c1ccncc1` [I-E-14, 2-amino-6-fluoro-N-(3-methyl-4-(pyridin-4-yl)isothiazol-5-yl)pyrazolo[1,5-a]pyrimidine-3-carboxamide]: 10 to 1000 nM and “+++ (Compounds with a Cisplatin sensitization value of <0.02 μM are marked with “+++.”)”.
Consider `Cc1nsc(NC(=O)c2c(N)nn3cc(F)cnc23)c1CN1CCOCC1` [I-E-15, 2-amino-6-fluoro-N-(3-methyl-4-(morpholinomethyl)isothiazol-5-yl)pyrazolo[1,5-a]pyrimidine-3-carboxamide], for which the Ki in assay [2] is 10 to 1000 nM. Also, in assay [3], the “Cisplatin Sensitization Assay” value is on record as “+++ (Compounds with a Cisplatin sensitization value of <0.02 μM are marked with “+++.”)”.
The matching figures for `Cc1cc(-c2c(C)nsc2NC(=O)c2c(N)nn3cc(F)cnc23)n(C)n1` [I-E-16, 2-amino-N-(4-(1,3-dimethyl-1H-pyrazol-5-yl)-3-methylisothiazol-5-yl)-6-fluoropyrazolo[1,5-a]pyrimidine-3-carboxamide]: 10 to 1000 nM and “+++ (Compounds with a Cisplatin sensitization value of <0.02 μM are marked with “+++.”)”.
The matching figures for `Cc1nsc(NC(=O)c2c(N)nn3cc(F)cnc23)c1CN1CCCC1` [I-E-17, 2-amino-6-fluoro-N-(3-methyl-4-(pyrrolidin-1-ylmethyl)isothiazol-5-yl)pyrazolo[1,5-a]pyrimidine-3-carboxamide]: less than 10 nM and “+++ (Compounds with a Cisplatin sensitization value of <0.02 μM are marked with “+++.”)”.
As to `Cc1nn(C)cc1-c1c(C)nsc1NC(=O)c1c(N)nn2cc(F)cnc12` [I-E-18, 2-amino-N-(4-(1,3-dimethyl-1H-pyrazol-4-yl)-3-methylisothiazol-5-yl)-6-fluoropyrazolo[1,5-a]pyrimidine-3-carboxamide], the Ki in assay [2] is 10 to 1000 nM. The “Cisplatin Sensitization Assay” value in assay [3] is “+++ (Compounds with a Cisplatin sensitization value of <0.02 μM are marked with “+++.”)”.
Taken in the same sequence, the figures for `Cc1nsc(NC(=O)c2c(N)nn3cc(F)cnc23)c1CN1CCN(C)CC1` [I-E-19, 2-amino-6-fluoro-N-(3-methyl-4-((4-methylpiperazin-1-yl)methyl)isothiazol-5-yl)pyrazolo[1,5-a]pyrimidine-3-carboxamide] were less than 10 nM and “+++ (Compounds with a Cisplatin sensitization value of <0.02 μM are marked with “+++.”)”.
Take `COCc1c(C)nsc1NC(=O)c1c(N)nn2cc(F)cnc12` [I-E-20, 2-amino-6-fluoro-N-(4-(methoxymethyl)-3-methylisothiazol-5-yl)pyrazolo[1,5-a]pyrimidine-3-carboxamide]: in assay [2], the Ki is 10 to 1000 nM. In addition, in assay [3], the “Cisplatin Sensitization Assay” value was “+++ (Compounds with a Cisplatin sensitization value of <0.02 μM are marked with “+++.”)”.
The matching figures for `Cc1nsc(NC(=O)c2c(N)nn3cc(F)cnc23)c1N1CCCC1` [I-E-21, 2-amino-6-fluoro-N-(3-methyl-4-(pyrrolidin-1-yl)isothiazol-5-yl)pyrazolo[1,5-a]pyrimidine-3-carboxamide]: 10 to 1000 nM and “++ (Compounds with a Cisplatin sensitization value >0.02 μM but <0.2 μM are marked with “++.”)”.
